Our source for the viability, T/C and IC50 values is PubChem BioAssay AID1918944 (Molecular Pharmacology Branch, DTP, NCI, 2023).

The test system of the assay is 786-0 complex spheroid viability. Briefly: Anticancer human tumor 786-0 cell line growth inhibition.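 For all read-outs here: spheroids exposed to agents for seven days before readout.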 The settings on record: for viability, T/C: stronger effect = lower value. In outline:
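Multicellular complex spheroids of tumor cells with human endothelial cells (HUVEC) and mesenchymal stem cells; the LSD1 inhibitor iadademstat was combined with standard-of-care or investigational agents. Top concentration at or near clinical Cmax, half-log dilutions; final DMSO ≤0.25%.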

pIC50: −log10 of the molar value. Where “and” joins values, the source holds several entries; their conditions need not be identical. Equal entries are not always repeated.

What is called viability, T/C is the result in the treated group divided by that in the control group, in per cent. By pIC50 is commonly meant the IC50 on a negative log10 scale, so that one unit is a factor of ten.

For `CC1(C)CCC(CN2CCN(c3ccc(C(=O)NS(=O)(=O)c4ccc(NCC5CCOCC5)c([N+](=O)[O-])c4)c(Oc4cnc5[nH]ccc5c4)c3)CC2)=C(c2ccc(Cl)cc2)C1`, the viability, T/C (compound 0.0316 µM) was 102% and 98%; the viability, T/C (compound 0.1 µM) was 106% and 105%; the viability, T/C (compound 0.316 µM) was 96.9% and 110%; the viability, T/C (compound 1 µM) is 97% and 99.1%; the viability, T/C (compound 3.16 µM) was 90.1% and 93.2%; the viability, T/C (compound 10 µM) was 66.7% and 79.4%. The pIC50 (curve of compound) is under 5.00.
`CC1COCCN1c1cc(C2(S(C)(=N)=O)CC2)nc(-c2ccnc3[nH]ccc23)n1` (configuration not stated) + NC1CC1c1ccc(-c2cccc(O)c2)cc1: the pIC50 was 6.03 (curve of first compound, second compound 0.1 µM); 5.99 (curve of first compound, second compound 0.316 µM); 6.03 (curve of first compound, second compound 1 µM); 6.09 (curve of first compound, second compound 3.16 µM); 6.12 (curve of first compound, second compound 10 µM). For the same compound, the viability, T/C (second compound 0.1 µM, first compound 0.0316 µM) was 99.5%; the viability, T/C (second compound 0.1 µM, first compound 0.1 µM) was 107%; the viability, T/C (second compound 0.1 µM, first compound 0.316 µM) was 89.1%; the viability, T/C (second compound 0.1 µM, first compound 1 µM) was 47.4%; the viability, T/C (second compound 0.1 µM, first compound 3.16 µM) was 22.8%; the viability, T/C (second compound 0.1 µM, first compound 10 µM) is 14.4%. For the same compound, the viability, T/C is, setting by setting: (second compound 0.316 µM, first compound 0.0316 µM) 114%; (second compound 0.316 µM, first compound 0.1 µM) 110%; (second compound 0.316 µM, first compound 0.316 µM) 98.8%; (second compound 0.316 µM, first compound 1 µM) 49.7%; (second compound 0.316 µM, first compound 3.16 µM) 22.7%; (second compound 0.316 µM, first compound 10 µM) 14.8%. The viability, T/C reads like this: (second compound 1 µM, first compound 0.0316 µM) 101%; (second compound 1 µM, first compound 0.1 µM) 102%; (second compound 1 µM, first compound 0.316 µM) 88%; (second compound 1 µM, first compound 1 µM) 46.4%; (second compound 1 µM, first compound 3.16 µM) 22.9%; (second compound 1 µM, first compound 10 µM) 12.8%. Besides, the viability, T/C runs as follows: (second compound 3.16 µM, first compound 0.0316 µM) 94.5%; (second compound 3.16 µM, first compound 0.1 µM) 101%; (second compound 3.16 µM, first compound 0.316 µM) 86%; (second compound 3.16 µM, first compound 1 µM) 41.8%; (second compound 3.16 µM, first compound 3.16 µM) 22.9%; (second compound 3.16 µM, first compound 10 µM) 14.6%. Besides, the viability, T/C was 99% (second compound 10 µM, first compound 0.0316 µM); 95.2% (second compound 10 µM, first compound 0.1 µM); 81.3% (second compound 10 µM, first compound 0.316 µM); 38.1% (second compound 10 µM, first compound 1 µM); 25.6% (second compound 10 µM, first compound 3.16 µM); 13.4% (second compound 10 µM, first compound 10 µM).
